Here are results for 23 compounds from ChEMBL document CHEMBL5131457, “Design, synthesis and biological evaluation of novel 1H-pyrazole-4-carbonyl-4,5,6,7-tetrahydrobenzo [b]thiophene derivatives as gut-selective NaPi2b inhibitors” (Bioorg Med Chem Lett, 2022).

Usually solubility stands for the dissolved amount per volume that the medium holds. For orientation: IC50 means the concentration that inhibits the measured activity by half. Low readings indicate greater potency, high ones weaker potency. What is called AUC(0-t) is the area under the concentration-time curve up to a stated or last time point. Read a low AUC(0-t) as low exposure. As a reminder, the bioavailability is dose-corrected exposure relative to a reference, in per cent. Higher therefore signals good availability. Broadly, the Cmax is the peak of the concentration-time curve.

Each structure is given as a SMILES string.

The nature of data set [1]: Solubility of the compound in FeSSIF at pH 5.1. The format is physicochemical.
A short description of data set [2]: Solubility of the compound in FaSSIF at pH 6.6. The format is physicochemical.
Data set [3] deals with T1, Sodium-dependent phosphate transport protein 2B (Homo sapiens, UniProt O95436).
T1 sequence (O95436 whole entry): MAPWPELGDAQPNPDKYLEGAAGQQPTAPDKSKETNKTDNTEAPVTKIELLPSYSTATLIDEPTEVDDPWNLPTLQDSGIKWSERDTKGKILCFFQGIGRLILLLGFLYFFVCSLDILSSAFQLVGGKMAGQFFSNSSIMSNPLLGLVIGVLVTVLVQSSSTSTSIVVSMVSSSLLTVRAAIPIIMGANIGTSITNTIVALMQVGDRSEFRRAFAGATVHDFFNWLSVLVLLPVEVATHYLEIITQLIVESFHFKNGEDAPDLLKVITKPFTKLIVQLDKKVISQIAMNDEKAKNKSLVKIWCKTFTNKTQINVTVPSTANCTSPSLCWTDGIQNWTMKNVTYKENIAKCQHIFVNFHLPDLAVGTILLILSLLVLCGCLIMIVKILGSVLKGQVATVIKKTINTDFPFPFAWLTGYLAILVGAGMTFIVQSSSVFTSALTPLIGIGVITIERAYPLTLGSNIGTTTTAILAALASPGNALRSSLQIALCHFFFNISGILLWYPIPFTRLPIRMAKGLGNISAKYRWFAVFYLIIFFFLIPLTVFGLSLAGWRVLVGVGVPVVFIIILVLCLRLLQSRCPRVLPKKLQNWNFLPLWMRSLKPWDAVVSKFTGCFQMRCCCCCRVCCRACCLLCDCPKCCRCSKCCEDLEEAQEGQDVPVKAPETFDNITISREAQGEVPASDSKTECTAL
Kind of data set: Inhibition of human NaPi2b.

The nature of data set [4]: AUC (0 to t) in fasted Sprague-Dawley rat at 10 mg/kg, po. Details: dose 10 mg/kg, route po. The format is ADME, organism-based. The settings on record: in vivo; for AUC(0-t): Sprague-Dawley.
Data set [5] is described as follows: Drug concentration in Sprague-Dawley rat intestine at 10 mg/kg, po relative to excretion rate. The format is ADME, organism-based. The settings on record: in vivo.
The nature of data set [6]: AUC (0 to t) in fasted Sprague-Dawley rat at 1 mg/kg, iv. The format is ADME, organism-based. Details: dose 1 mg/kg, route iv. Particulars: in vivo; for AUC(0-t): Sprague-Dawley.
Data set [7] addresses T2, Sodium-dependent phosphate transport protein 2B (Rattus norvegicus, UniProt Q9JJ09).
T2 sequence (Q9JJ09 whole entry): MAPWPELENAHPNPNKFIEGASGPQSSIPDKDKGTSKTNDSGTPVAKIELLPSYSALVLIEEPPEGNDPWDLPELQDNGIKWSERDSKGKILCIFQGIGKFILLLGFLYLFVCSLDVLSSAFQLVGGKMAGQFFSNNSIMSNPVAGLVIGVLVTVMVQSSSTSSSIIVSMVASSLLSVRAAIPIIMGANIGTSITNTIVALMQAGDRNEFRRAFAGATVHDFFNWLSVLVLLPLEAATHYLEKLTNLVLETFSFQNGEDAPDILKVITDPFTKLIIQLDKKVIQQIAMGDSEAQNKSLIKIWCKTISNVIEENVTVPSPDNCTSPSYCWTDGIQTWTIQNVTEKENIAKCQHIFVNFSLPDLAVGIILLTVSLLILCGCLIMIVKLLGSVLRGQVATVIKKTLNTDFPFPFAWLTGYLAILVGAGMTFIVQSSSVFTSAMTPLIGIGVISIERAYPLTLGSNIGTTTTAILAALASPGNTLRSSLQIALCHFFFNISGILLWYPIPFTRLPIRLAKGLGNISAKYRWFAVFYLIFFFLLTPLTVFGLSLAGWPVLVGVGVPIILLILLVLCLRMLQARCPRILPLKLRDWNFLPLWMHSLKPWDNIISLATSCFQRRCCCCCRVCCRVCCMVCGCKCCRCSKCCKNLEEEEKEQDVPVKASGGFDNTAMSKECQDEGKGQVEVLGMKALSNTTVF
Description: Inhibition of rat NaPi2b.

Data set [8] can be described thus: Drug concentration in Sprague-Dawley rat intestine at 10 mg/kg, po relative to intestine volume. The settings on record: in vivo. The format is ADME, organism-based.
Data set [9] can be described thus: Oral bioavailability in fasted Sprague-Dawley rat at 10 mg/kg. The format is ADME, organism-based. Particulars: in vivo; for bioavailability: Sprague-Dawley.
A short description of data set [10]: Drug excretion in fasted Sprague-Dawley rat feces at 10 mg/kg, po measured after 24 hrs. The format is ADME, organism-based. The settings on record: faeces, read-out: Drug excretion.
Data set [11] is described as follows: Cmax in fasted Sprague-Dawley rat at 10 mg/kg, po. The format is ADME, organism-based. Further details: dose 10 mg/kg, route po. Particulars: in vivo.

For `CCC(CC)N(CCN(C)C(=O)CCC(=O)NC(C)(C)C(=O)NCCN(C)C)Cc1cccc(C(=O)Nc2sc3c(c2C(=O)c2cnn(-c4ccc(Cl)c(C(F)(F)F)c4)c2)CCC(C)(C)C3)c1.Cl`, the solubility was more than 434 µg/mL in [1] and 242 µg/mL in data set [2].

`CCC(CC)N(CCN(C)C(=O)CCC(=O)O)S(=O)(=O)c1cccc(C(=O)Nc2sc3c(c2C(=O)c2cnn(-c4ccc(Cl)c(C(F)(F)F)c4)c2)CCC(C)(C)C3)c1`: the midpoint of inhibition in data set [3], the IC50, lay at 39 nM.

Consider `CCC(CC)N(CCN(C)C(=O)CCC(=O)O)Cc1cccc(C(=O)Nc2sc3c(c2C(=O)c2cnn(-c4ccc(Cl)cc4)c2)CCN(S(C)(=O)=O)C3)c1`, for which inhibition in data set [3] was half-maximal at 2490 nM (IC50).

`CCC(CC)N(CCN(C)C(=O)CCC(=O)O)Cc1cccc(C(=O)Nc2sc3c(c2C(=O)c2cnn(Cc4nnc[nH]4)c2)CCC(C)(C)C3)c1` showed an IC50 in data set [3] of more than 1000 nM.

In the case of `CCC(CC)N(CCN(C)C(=O)CCC(=O)O)Cc1cccc(C(=O)Nc2sc3c(c2C(=O)c2cnn(-c4ccc(Cl)cc4)c2)CCN(C2CC2)C3)c1`, the IC50 in [3] turned out to be 80 nM.

In the case of `CCC(CC)N(CCN(C)C(=O)CCC(=O)O)Cc1cccc(C(=O)Nc2sc3c(c2C(=O)c2cnn(Cc4cccc(C(=O)O)c4)c2)CCC(C)(C)C3)c1`, in data set [3], the IC50 was more than 1000 nM.

With `CCC(CC)N(CCN(C)C(=O)CCC(=O)NCCOCCOCCOCCO)Cc1cccc(C(=O)Nc2sc3c(c2C(=O)c2cnn(-c4ccc(Cl)c(C(F)(F)F)c4)c2)CCC(C)(C)C3)c1`, the AUC(0-t) in [4] is 32.3 ng·h/mL; in [6], 1570 ng·h/mL. In addition, the figures for the IC50 in data set [3] and in [7] were 15 nM and 2.1 nM, respectively. Further, the figures for the Ct in [5] and in data set [8] were 36 µg/mL and 58 µg/mL, respectively. This compound also returned a bioavailability in [9] of 0.2%. The dose excreted at 24 h in data set [10] was determined as 61.7%. This compound had a Cmax in [11] of 28.1 ng/mL.

With `CCC(CC)N(CCN(C)C(=O)CCC(=O)O)Cc1cccc(C(=O)Nc2sc3c(c2C(=O)c2cnn(-c4cccc(C(=O)O)c4)c2)CCC(C)(C)C3)c1`, in [3], the IC50 was more than 1000 nM.

For `CCC(CC)N(CCN(C)C(=O)CCC(=O)NCCOCCOCCOCCO)Cc1cccc(C(=O)Nc2sc3c(c2C(=O)c2cnn(-c4ccc(Cl)c(C(F)(F)F)c4)c2)CCC(C)(C)C3)c1.Cl`, the solubility in data set [1] is more than 384 µg/mL; in [2] it was 107 µg/mL.

Consider `CCC(CC)N(CCN(C)C(=O)CCC(=O)O)Cc1cccc(C(=O)Nc2sc3c(c2C(=O)c2cnn(-c4cccc(C(F)(F)F)c4)c2)CCC(C)(C)C3)c1`, for which the midpoint of inhibition in [3], the IC50, lay at 46 nM.

Regarding `CCC(CC)N(CCN(C)C(=O)CCC(=O)O)Cc1cccc(C(=O)Nc2sc3c(c2C(=O)c2cnn(-c4ccc(Cl)cc4)c2)CCCC3)c1`, the IC50 in [3] is 118 nM.

In turn, `CCC(CC)N(CCN(C)C(=O)CCC(=O)O)Cc1cccc(C(=O)Nc2sc3c(c2C(=O)c2cnn(-c4ccc(C(=O)O)cc4)c2)CCC(C)(C)C3)c1` displayed an IC50 in [3] of more than 1000 nM.

In data set [3], `CCN([C@H]1CC[C@H](C(=O)O)CC1)S(=O)(=O)c1cccc(C(=O)Nc2sc3c(c2C(=O)c2cnn(-c4ccc(Cl)c(C(F)(F)F)c4)c2)CCC(C)(C)C3)c1` yielded an IC50 of 42 nM.

Consider `CCC(CC)N(CCN(C)C(=O)CCC(=O)O)Cc1cccc(C(=O)Nc2sc3c(c2C(=O)c2cnn(-c4ccc(Cl)c(C(F)(F)F)c4)c2)CCC(C)(C)C3)c1`, for which the AUC(0-t) in [4] stood at 2190 ng·h/mL; in data set [6] it was 3070 ng·h/mL. Further, the IC50 in data set [3] came to 38 nM. This compound also came in with a bioavailability in data set [9] of 7.1%. The same compound displayed a Cmax in data set [11] of 625 ng/mL.

In the case of `CC1(C)CCc2c(sc(NC(=O)c3cccc(OCCOCCOCCOCCOCCOCCO)c3)c2C(=O)c2cnn(-c3ccc(Cl)c(C(F)(F)F)c3)c2)C1`, in [3], half-maximal inhibition (IC50) was put at 170 nM.

In the case of `CCC(CC)N(CCN(C)C(=O)CCC(=O)NC(C)(C)C(=O)NCCN(C)C)Cc1cccc(C(=O)Nc2sc3c(c2C(=O)c2cnn(-c4ccc(Cl)c(C(F)(F)F)c4)c2)CCC(C)(C)C3)c1`, the AUCt in data set [4] turned out to be 15.3 ng·h/mL; in data set [6], 2580 ng·h/mL. Besides, the IC50 amounted to 48 nM in [3] and 7.6 nM in [7]. Further, the Ct amounted to 45 µg/mL in data set [5] and 58 µg/mL in data set [8]. In data set [9] (po, 10 mg/kg), this compound registered an F of 0.6%. For the same compound, the dose excreted at 24 h in [10] came out at 76.8%. Further, the peak level in data set [11] (Cmax) was 15.3 ng/mL.

In [3], `CCC(CC)N(CCN(C)C(=O)CCC(=O)N(C)C[C@H](O)[C@@H](O)[C@@H](O)[C@H](O)CO)Cc1cccc(C(=O)Nc2sc3c(c2C(=O)c2cnn(-c4ccc(Cl)c(C(F)(F)F)c4)c2)CCC(C)(C)C3)c1` showed an IC50 of 87 nM.

`CCC(CC)N(CCN(C)C(=O)CCC(=O)O)Cc1cccc(C(=O)Nc2sc3c(c2C(=O)c2cnn(Cc4ccccc4)c2)CCC(C)(C)C3)c1` returned an IC50 in data set [3] of 179 nM.

Compound `CCC(CC)N(CCN(C)C(=O)CCC(=O)O)Cc1cccc(C(=O)Nc2sc3c(c2C(=O)c2cnn(-c4ccc(Cl)cc4)c2)CCOC3)c1` showed an IC50 in data set [3] of 437 nM.

Compound `CCC(CC)N(CCN(C)C(=O)CCC(=O)O)Cc1cccc(C(=O)Nc2sc3c(c2C(=O)c2cnn(-c4ccc(Cl)cc4)c2)CCC(C)(C)C3)c1` registered an IC50 in [3] of 36 nM.

Compound `CCC(CC)N(CCN(C)C(=O)CCC(=O)O)Cc1cccc(C(=O)Nc2sc3c(c2C(=O)c2cnn(Cc4ccc(C(=O)O)cc4)c2)CCC(C)(C)C3)c1` registered an IC50 in data set [3] of more than 1000 nM.

Take `CCC(CC)N(CCN(C)C(=O)CCC(=O)O)Cc1cccc(C(=O)Nc2sc3c(c2C(=O)c2cnn(-c4ccc(Cl)cc4)c2)CCN(C(C)=O)C3)c1`: the IC50 in data set [3] is more than 1000 nM.

Turning to `CCC(CC)N(CCN(C)C(=O)CCC(=O)O)Cc1cccc(C(=O)Nc2sc3c(c2C(=O)c2cnn(-c4ccc(Cl)cc4)c2)CCSC3)c1`, the half-inhibitory concentration (IC50) in [3] was 713 nM.
